Tests used:
ATXN3 pre-mRNA = assay: RT-qPCR Assay to Quantify Exon 4 Skipping in ATXN3 pre-mRNA in Cells; type: cell-based; conditions: percent exon 4 skipping in ATXN3 pre-mRNA, RT-qPCR of cell lysates; average IC50
In short: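 Cells plated at 10,000/well onto a 7-point, 3.16-fold DMSO dilution series (duplicates), incubated 24 h at 37 °C, then lysed. Exon 4 skipping measured by one-step RT-qPCR (48 °C RT, 40 cycles); IC50 interpolated from dose-response fit of percent skipping.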

[1] = tested on: Total ATXN3 (tATXN3) protein; assay: Endogenous Total ATXN3 (tATXN3) Protein Assay (MSD immunoassay of cell lysates); type: cell-based; conditions: average IC50, total ATXN3 protein in cell lysate after 48 h with compound (Table 1)
In short: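 Cells in DMEM/10% FBS were plated at 10,000 per well onto 7-point, 3.16-fold compound dilutions in duplicate for 48 h at 37° C, then lysed. Total ATXN3 in lysates was measured by MSD sandwich immunoassay: mouse anti-ATXN3 capture, rabbit anti-ATXN3 detection, SULFO-TAG anti-rabbit. Average IC50 was reported in star bins.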

Row | Molecule | IC50 (ATXN3 pre-mRNA) | IC50 [1]
1 | 5-(5-chloro-2-((1R,6R)-6-(dimethylamino)cyclohex-3-en-1-yl)-7-((thiophen-2-ylmethyl)amino)thieno[3,2-b]pyridin-3-yl)pent-4-yn-1-ol and 5-(5-chloro-2-((1S,6S)-6-(dimethylamino)cyclohex-3-en-1-yl)-7-((thiophen-2-ylmethyl)amino)thieno[3,2-b]pyridin-3-yl)pent-4-yn-1-ol [Compound 454] | 0.3 to 1 µM | 0.3 to 1 µM
2 | N[C@@H]1CC(F)(F)CC[C@@H]1c1sc2c(NCc3cccs3)cc(Cl)nc2c1Br.N[C@H]1CC(F)(F)CC[C@H]1c1sc2c(NCc3cccs3)cc(Cl)nc2c1Br (mixture of isomers) [Compound 30, 2-((1R,2S)-2-amino-4,4-difluorocyclohexyl)-3-bromo-5-chloro-N-(thiophen-2-ylmethyl)thieno[3,2-b]pyridin-7-amine and 2-((1S,2R)-2-amino-4,4-difluorocyclohexyl)-3-bromo-5-chloro-N-(thiophen-2-ylmethyl)thieno[3,2-b]pyridin-7-amine] | > 1 µM | > 1 µM
3 | N[C@H]1CCCCC[C@H]1c1sc2c(NCc3cccs3)cc(Cl)nc2c1Br [Compound 73, 2-((1R,2S)-2-aminocycloheptyl)-3-bromo-5-chloro-N-(thiophen-2-ylmethyl)thieno[3,2-b]pyridin-7-amine] | 0.3 to 1 µM | 0.3 to 1 µM
4 | CC#Cc1c([C@H]2CCCC[C@@H]2N)n(C(F)F)c2c(NCc3ccco3)nc(Cl)nc12 [Compound 331, 6-((1S,2S)-2-aminocyclohexyl)-2-chloro-5-(difluoromethyl)-N-(furan-2-ylmethyl)-7-(prop-1-yn-1-yl)-5H-pyrrolo[3,2-d]pyrimidin-4-amine] | 0.03 to 0.3 µM | 0.03 to 0.3 µM
5 | Cc1c([C@@H]2CCCCC[C@@H]2N)sc2c(NCc3cccs3)cc(Cl)nc12 [Compound 82, 2-((1R,2S)-2-aminocycloheptyl)-5-chloro-3-methyl-N-(thiophen-2-ylmethyl)thieno[3,2-b]pyridin-7-amine] | 0.3 to 1 µM | 0.3 to 1 µM
6 | Cc1c([C@H]2CCCC[C@@H]2N)sc2c(NCc3ccccc3)cc(Cl)nc12 [Compound 280, 2-((1S,2S)-2-aminocyclohexyl)-N-benzyl-5-chloro-3-methylthieno[3,2-b]pyridin-7-amine] | 0.03 to 0.3 µM | 0.03 to 0.3 µM
7 | 2-((1R,6S)-6-amino-2,2-difluorocyclohexyl)-3-bromo-N-(but-2-yn-1-yl)-5-chlorothieno[3,2-b]pyridin-7-amine and 2-((1S,6R)-6-amino-2,2-difluorocyclohexyl)-3-bromo-N-(but-2-yn-1-yl)-5-chlorothieno[3,2-b]pyridin-7-amine [Compound 370] | 0.03 to 0.3 µM | 0.03 to 0.3 µM
8 | N[C@@H]1CCCO[C@H]1c1sc2c(NCc3ccccc3)cc(Cl)nc2c1Cl [Compound 156, 2-((2R,3R)-3-aminotetrahydro-2H-pyran-2-yl)-N-benzyl-3,5-dichlorothieno[3,2-b]pyridin-7-amine] | > 1 µM | > 1 µM
9 | Cc1c([C@H]2CC=CC[C@@H]2N)sc2c(NCc3cccs3)nc(Cl)nc12 [Compound 268, 6-((1S,6S)-6-aminocyclohex-3-en-1-yl)-2-chloro-7-methyl-N-(thiophen-2-ylmethyl)thieno[3,2-d]pyrimidin-4-amine] | 0.03 to 0.3 µM | 0.03 to 0.3 µM

Other lines, results leading:

Row | IC50 (ATXN3 pre-mRNA) | IC50 [1] | Molecule
10 | 0.03 to 0.3 µM | 0.03 to 0.3 µM | C#Cc1c([C@H]2CCCC[C@@H]2N)sc2c(NCc3ccccc3F)cc(Cl)nc12 [Compound 311, 2-((1S,2S)-2-aminocyclohexyl)-5-chloro-3-ethynyl-N-(2-fluorobenzyl)thieno[3,2-b]pyridin-7-amine]
11 | 0.03 to 0.3 µM | 0.03 to 0.3 µM | [2H]C1=C([2H])C([2H])([2H])[C@H](c2sc3c(NCc4ccccc4)cc(Cl)nc3c2C)[C@@H](N)C1([2H])[2H] [Compound 292, 2-((1S,6S)-6-aminocyclohex-3-en-1-yl-2,2,3,4,5,5-d6)-N-benzyl-5-chloro-3-methylthieno[3,2-b]pyridin-7-amine]
12 | ≤ 0.03 µM | ≤ 0.03 µM | N[C@H]1CC=CC[C@@H]1c1sc2c(NCc3cccs3)nc(Cl)nc2c1Br [Compound 191, 6-((1S,6S)-6-aminocyclohex-3-en-1-yl)-7-bromo-2-chloro-N-(thiophen-2-ylmethyl)thieno[3,2-d]pyrimidin-4-amine]
13 | ≤ 0.03 µM | 0.03 to 0.3 µM | N[C@@H]1CC=CC[C@H]1c1c(I)c2nc(Cl)cc(NCc3cccs3)c2n1C(F)F [Compound 427, 2-((1R,6R)-6-aminocyclohex-3-en-1-yl)-5-chloro-1-(difluoromethyl)-3-iodo-N-(thiophen-2-ylmethyl)-1H-pyrrolo[3,2-b]pyridin-7-amine]
14 | ≤ 0.03 µM | ≤ 0.03 µM | N[C@H]1CC=CC[C@@H]1c1sc2c(NCc3ccccc3)cc(Cl)nc2c1I [Compound 190, 2-((1S,6S)-6-aminocyclohex-3-en-1-yl)-N-benzyl-5-chloro-3-iodothieno[3,2-b]pyridin-7-amine]
15 | 0.03 to 0.3 µM | 0.03 to 0.3 µM | Cc1c([C@@H]2CC=CC[C@H]2N)sc2c(NCc3ccco3)cc(Cl)nc12 [Compound 382, 2-((1R,6R)-6-aminocyclohex-3-en-1-yl)-5-chloro-N-(furan-2-ylmethyl)-3-methylthieno[3,2-b]pyridin-7-amine]
16 | 0.03 to 0.3 µM | 0.03 to 0.3 µM | N[C@@H]1CC=CC[C@H]1c1sc2c(NCc3nccs3)cc(Cl)nc2c1Cl [Compound 380, 2-((1R,6R)-6-aminocyclohex-3-en-1-yl)-3,5-dichloro-N-(thiazol-2-ylmethyl)thieno[3,2-b]pyridin-7-amine]
17 | ≤ 0.03 µM | ≤ 0.03 µM | CC#CCNc1nc(Cl)nc2c(I)c([C@H]3CC=CC[C@@H]3N)sc12 [Compound 219, 6-((1S,6S)-6-aminocyclohex-3-en-1-yl)-N-(but-2-yn-1-yl)-2-chloro-7-iodothieno[3,2-d]pyrimidin-4-amine]
18 | 0.03 to 0.3 µM | 0.03 to 0.3 µM | N[C@H]1CC=C[C@@H](O)[C@@H]1c1sc2c(NCc3cccs3)cc(Cl)nc2c1Cl [Compound 377, (1R,5S,6R)-5-amino-6-(3,5-dichloro-7-((thiophen-2-ylmethyl)amino)thieno[3,2-b]pyridin-2-yl)cyclohex-2-en-1-ol]
19 | ≤ 0.03 µM | ≤ 0.03 µM | N[C@H]1CCC(=O)C[C@@H]1c1sc2c(NCc3ccco3)cc(Cl)nc2c1Cl [Compound 221, (3S,4S)-4-amino-3-(3,5-dichloro-7-((furan-2-ylmethyl)amino)thieno[3,2-b]pyridin-2-yl)cyclohexan-1-one]
20 | ≤ 0.03 µM | ≤ 0.03 µM | N[C@H]1CCCC[C@@H]1c1sc2c(NCc3cccs3)cc(Cl)nc2c1I [Compound 57, 2-((1S,2S)-2-aminocyclohexyl)-5-chloro-3-iodo-N-(thiophen-2-ylmethyl)thieno[3,2-b]pyridin-7-amine]
21 | ≤ 0.03 µM | ≤ 0.03 µM | Cc1c([C@@H]2CC=CC[C@H]2N)sc2c(NCc3cccs3)cc(Cl)nc12 [Compound 220, 2-((1R,6R)-6-aminocyclohex-3-en-1-yl)-5-chloro-3-methyl-N-(thiophen-2-ylmethyl)thieno[3,2-b]pyridin-7-amine]
